Results reported in patent US20250375452A1 (AMGEN INC., priority 2021, published 2025).

Assays:
[1] = Phase 1 fixed-sequence crossover study, sotorasib with famotidine or omeprazole under fed conditions; assay type: in vivo, human; conditions: for decrease of sotorasib AUC / decrease of sotorasib Cmax: fed conditions
Description: Safety and tolerability monitoring was performed throughout the study.
A total of […] healthy subjects (1 woman and 13 men) were enrolled in the study. Thirteen out of the 14 subjects received all treatments and completed the study.

[2] = Phase 1 fixed-sequence study, sotorasib with rifampin; assay type: in vivo, human
[3] = Phase 1 fixed-sequence study, sotorasib with omeprazole under fasted conditions; assay type: in vivo, human
[4] = test system: extracellular signal-regulated kinase (ERK); conditions: preclinical studies; cited from earlier work
[5] = Phase 1 fixed-sequence study, digoxin with sotorasib; assay type: in vivo, human
Description: Blood samples for digoxin PK were collected predose and up to 144 hours post-digoxin dose. Samples were measured using validated high-performance liquid chromatography tandem mass spectrometry methods.

[6] = Phase 1 fixed-sequence study, midazolam with sotorasib; conditions: 2 mg midazolam coadministered with 960 mg sotorasib after 14 days of daily sotorasib vs midazolam alone, 5 subjects
[7] = famotidine 10 hours prior to and 2 hours after a single dose of sotorasib
[8] = repeat doses of omeprazole with a single dose of sotorasib
[9] = coadministration with omeprazole vs sotorasib alone, fasted state
[10] = coadministration with a single dose of sotorasib vs digoxin alone
[11] = with sotorasib vs digoxin alone

For `C=CC(=O)N1CCN(c2nc(=O)n(-c3c(C)ccnc3C(C)C)c3nc(-c4c(O)cccc4F)c(F)cc23)[C@@H](C)C1` (atropisomer, axis not shown) [sotorasib, 6-fluoro-7-(2-fluoro-6-hydroxyphenyl)-(1M)-1-[4-methyl-2-(propan-2-yl)pyridin-3-yl]-4-[(2S)-2-methyl-4-(prop-2-enoyl)piperazin-1-yl]pyrido[2,3-d]pyrimidin-2(1H)-one], the safety and tolerability ([1]; 960 mg sotorasib with single dose 40 mg famotidine and after multiple daily 40 mg omeprazole, fed, healthy subjects) was “safe and well tolerated”, the “decrease of sotorasib AUC” value [1, 7] was 38% and the “decrease of sotorasib Cmax” value [1, 7] was 35%. For the same compound, the “decrease of sotorasib AUC” value [1, 8] was 57%, the “decrease of sotorasib Cmax” value [1, 8] was 65% and the safety and tolerability ([2]; coadministered with 600 mg rifampin or administered alone, healthy subjects) was “safe and well tolerated”. The CYP3A4 substrate status ([2]; inferred from multiple doses of rifampin, consistent with in vitro data) was “is a CYP3A4 substrate”, the OATP1B1 substrate status ([2]; inferred from single dose of rifampin) was “not a substrate of OATP1B1” and the “decrease of sotorasib AUCinf” value ([2]; multiple doses of rifampin) was 51%. The “decrease of sotorasib Cmax” value ([2]; multiple doses of rifampin) was 35%, the safety and tolerability ([3]; coadministered with 40 mg omeprazole or administered alone, healthy subjects) was “safe and well tolerated” and the “decrease of sotorasib AUCinf” value [3, 9] was 42%. The “decrease of sotorasib Cmax” value [3, 9] was 57%, the “Mean terminal half-life (t1/2), coadministration compared to alone” value ([3]; with omeprazole vs sotorasib alone, fasted) was “similar” and the “phosphorylation of extracellular signal-regulated kinase (ERK)” value [4] was “inhibited nearly all detectable phosphorylation”.

For `C[C@H]1O[C@@H](O[C@H]2[C@@H](O)C[C@H](O[C@H]3[C@@H](O)C[C@H](O[C@H]4CC[C@@]5(C)[C@H](CC[C@@H]6[C@@H]5C[C@@H](O)[C@]5(C)[C@@H](C7=CC(=O)OC7)CC[C@]65O)C4)O[C@@H]3C)O[C@@H]2C)C[C@H](O)[C@@H]1O` [digoxin], the “increase of digoxin AUCinf” value [5, 10] was “approximately 21%”, the “increase of digoxin Cmax” value [5, 10] was ~91% and the safety and tolerability ([5]; single doses of 0.5 mg digoxin alone or coadministered with 960 mg sotorasib) was “safe and well tolerated”. For the same compound, the “Digoxin mean terminal half-life (t1/2), coadministration compared to alone” value [5, 11] was “similar” and the “Digoxin median time to maximal plasma concentration (tmax), coadministration compared to alone” value [5, 11] was “similar”.

In the case of `Cc1ncc2n1-c1ccc(Cl)cc1C(c1ccccc1F)=NC2` [midazolam], the “decrease of midazolam AUV” value [6] is reported as 53% and the “decrease of midazolam Cmax” value [6] is reported as 48%.
